Tests used:
[1] = target: AP2-associated protein kinase 1 (Homo sapiens) (UniProt Q2M2I8); conditions: Compound concentration 1000.0 nM
[2] = target: Tyrosine-protein kinase ABL2 (Homo sapiens) (UniProt P42684); conditions: Compound concentration 1000.0 nM
[3] = target: RAC-alpha serine/threonine-protein kinase (Homo sapiens) (UniProt P31749); conditions: Compound concentration 1000.0 nM
[4] = target: Aurora kinase A (Homo sapiens) (UniProt O14965); conditions: Compound concentration 1000.0 nM
[5] = target: Tyrosine-protein kinase BTK (Homo sapiens) (UniProt Q06187); conditions: Compound concentration 1000.0 nM
[6] = target: Mitotic checkpoint serine/threonine-protein kinase BUB1 (Homo sapiens) (UniProt O43683); conditions: Compound concentration 1000.0 nM
[7] = target: Cyclin-dependent kinase 3 (Homo sapiens) (UniProt Q00526); conditions: Compound concentration 1000.0 nM
[8] = target: Citron Rho-interacting kinase (Homo sapiens) (UniProt O14578); conditions: Compound concentration 1000.0 nM
[9] = target: Dual specificity protein kinase CLK1 (Homo sapiens) (UniProt P49759); conditions: Compound concentration 1000.0 nM
[10] = target: Dual specificity protein kinase CLK4 (Homo sapiens) (UniProt Q9HAZ1); conditions: Compound concentration 1000.0 nM
[11] = test system: Epidermal growth factor receptor (Homo sapiens), P00533 [G719S]; conditions: Compound concentration 1000.0 nM
[12] = test system: Epidermal growth factor receptor (Homo sapiens), P00533 [UNDEFINED MUTATION]; conditions: Compound concentration 1000.0 nM
[13] = test system: Epidermal growth factor receptor (Homo sapiens), P00533 [L861Q]; conditions: Compound concentration 1000.0 nM
[14] = target: Ephrin type-A receptor 8 (Homo sapiens) (UniProt P29322); conditions: Compound concentration 1000.0 nM
[15] = target: Mitogen-activated protein kinase 1 (Homo sapiens) (UniProt P28482); conditions: Compound concentration 1000.0 nM
[16] = target: Serine/threonine-protein kinase/endoribonuclease IRE1 (Homo sapiens) (UniProt O75460); conditions: Compound concentration 1000.0 nM
[17] = test system: Receptor-type tyrosine-protein kinase FLT3 (Homo sapiens), P36888 [UNDEFINED MUTATION]; conditions: Compound concentration 1000.0 nM
[18] = target: Inhibitor of nuclear factor kappa-B kinase subunit alpha (Homo sapiens) (UniProt O15111); conditions: Compound concentration 1000.0 nM
[19] = target: Insulin receptor (Homo sapiens) (UniProt P06213); conditions: Compound concentration 1000.0 nM
[20] = target: Serine/threonine-protein kinase LATS1 (Homo sapiens) (UniProt O95835); conditions: Compound concentration 1000.0 nM
[21] = target: Leucine-rich repeat serine/threonine-protein kinase 2 (Homo sapiens) (UniProt Q5S007); conditions: Compound concentration 1000.0 nM
[22] = target: Serine/threonine-protein kinase MAK (Homo sapiens) (UniProt P20794); conditions: Compound concentration 1000.0 nM
[23] = target: Dual specificity mitogen-activated protein kinase kinase 6 (Homo sapiens) (UniProt P52564); conditions: Compound concentration 1000.0 nM
[24] = target: Serine/threonine-protein kinase 4 (Homo sapiens) (UniProt Q13043); conditions: Compound concentration 1000.0 nM
[25] = target: Mitogen-activated protein kinase 14 (Homo sapiens) (UniProt Q16539); conditions: Compound concentration 1000.0 nM
[26] = target: Serine/threonine-protein kinase PAK 1 (Homo sapiens) (UniProt Q13153); conditions: Compound concentration 1000.0 nM
[27] = target: Serine/threonine-protein kinase PAK 4 (Homo sapiens) (UniProt O96013); conditions: Compound concentration 1000.0 nM
[28] = target: Phosphatidylinositol 4-phosphate 3-kinase C2 domain-containing subunit beta (Homo sapiens) (UniProt O00750); conditions: Compound concentration 1000.0 nM
[29] = target: Phosphatidylinositol 4-phosphate 5-kinase type-1 alpha (Homo sapiens) (UniProt Q99755); conditions: Compound concentration 1000.0 nM
[30] = target: Phosphatidylinositol 5-phosphate 4-kinase type-2 gamma (Homo sapiens) (UniProt Q8TBX8); conditions: Compound concentration 1000.0 nM
[31] = target: cAMP-dependent protein kinase catalytic subunit alpha (Homo sapiens) (UniProt P17612); conditions: Compound concentration 1000.0 nM
[32] = target: Membrane-associated tyrosine- and threonine-specific cdc2-inhibitory kinase (Homo sapiens) (UniProt Q99640); conditions: Compound concentration 1000.0 nM
[33] = target: Protein kinase C eta type (Homo sapiens) (UniProt P24723); conditions: Compound concentration 1000.0 nM
[34] = target: cAMP-dependent protein kinase catalytic subunit PRKX (Homo sapiens) (UniProt P51817); conditions: Compound concentration 1000.0 nM
[35] = target: Ribosomal protein S6 kinase alpha-1 (Homo sapiens) (UniProt Q15418); conditions: Compound concentration 1000.0 nM
[36] = target: Ribosomal protein S6 kinase alpha-3 (Homo sapiens) (UniProt P51812); conditions: Compound concentration 1000.0 nM
[37] = target: SRSF protein kinase 3 (Homo sapiens) (UniProt Q9UPE1); conditions: Compound concentration 1000.0 nM
[38] = target: Testis-specific serine/threonine-protein kinase 1 (Homo sapiens) (UniProt Q9BXA7); conditions: Compound concentration 1000.0 nM
[39] = target: Serine/threonine-protein kinase VRK2 (Homo sapiens) (UniProt Q86Y07); conditions: Compound concentration 1000.0 nM
[40] = target: Serine/threonine-protein kinase WNK2 (Homo sapiens) (UniProt Q9Y3S1); conditions: Compound concentration 1000.0 nM
[41] = target: 5-hydroxytryptamine receptor 1B (Homo sapiens) (UniProt P28222); conditions: Compound concentration 10.0 uM
[42] = target: 5-hydroxytryptamine receptor 1D (Homo sapiens) (UniProt P28221); conditions: Compound concentration 10.0 uM
[43] = target: 5-hydroxytryptamine receptor 1E (Homo sapiens) (UniProt P28566); conditions: Compound concentration 10.0 uM
[44] = target: Muscarinic acetylcholine receptor M3 (Homo sapiens) (UniProt P20309); conditions: Compound concentration 10.0 uM
[45] = target: Beta-3 adrenergic receptor (Homo sapiens) (UniProt P13945); conditions: Compound concentration 10.0 uM

5-hydroxytryptamine receptor 1E (Homo sapiens), sequence (P28566 whole entry): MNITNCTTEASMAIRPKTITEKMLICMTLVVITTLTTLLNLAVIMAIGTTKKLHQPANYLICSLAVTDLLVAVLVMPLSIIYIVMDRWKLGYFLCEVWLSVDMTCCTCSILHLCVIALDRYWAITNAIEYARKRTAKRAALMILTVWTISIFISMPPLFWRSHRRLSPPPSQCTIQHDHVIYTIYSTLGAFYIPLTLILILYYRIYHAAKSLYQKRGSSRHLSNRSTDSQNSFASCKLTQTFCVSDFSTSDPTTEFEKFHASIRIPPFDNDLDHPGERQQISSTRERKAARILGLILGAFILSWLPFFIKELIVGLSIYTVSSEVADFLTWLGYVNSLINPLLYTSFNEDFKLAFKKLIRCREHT
Serine/threonine-protein kinase PAK 4 (Homo sapiens), sequence (O96013 whole entry, looked up, the tested form may be a part): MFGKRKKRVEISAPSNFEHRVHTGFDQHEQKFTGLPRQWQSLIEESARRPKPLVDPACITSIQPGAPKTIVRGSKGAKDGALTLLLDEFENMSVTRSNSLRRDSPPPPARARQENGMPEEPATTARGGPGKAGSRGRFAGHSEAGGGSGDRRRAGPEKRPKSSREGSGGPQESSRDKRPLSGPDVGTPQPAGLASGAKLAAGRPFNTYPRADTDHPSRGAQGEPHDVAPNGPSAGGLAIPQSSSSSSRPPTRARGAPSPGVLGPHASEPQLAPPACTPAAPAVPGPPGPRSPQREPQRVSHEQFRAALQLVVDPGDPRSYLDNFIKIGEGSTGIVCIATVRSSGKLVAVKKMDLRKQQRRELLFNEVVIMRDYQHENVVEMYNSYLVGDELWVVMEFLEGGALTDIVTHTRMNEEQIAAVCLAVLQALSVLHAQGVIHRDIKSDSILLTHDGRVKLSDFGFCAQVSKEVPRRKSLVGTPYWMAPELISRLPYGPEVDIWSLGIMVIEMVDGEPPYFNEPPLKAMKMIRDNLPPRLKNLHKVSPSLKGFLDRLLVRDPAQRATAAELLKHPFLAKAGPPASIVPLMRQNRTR
Serine/threonine-protein kinase 4 (Homo sapiens), sequence (Q13043 whole entry): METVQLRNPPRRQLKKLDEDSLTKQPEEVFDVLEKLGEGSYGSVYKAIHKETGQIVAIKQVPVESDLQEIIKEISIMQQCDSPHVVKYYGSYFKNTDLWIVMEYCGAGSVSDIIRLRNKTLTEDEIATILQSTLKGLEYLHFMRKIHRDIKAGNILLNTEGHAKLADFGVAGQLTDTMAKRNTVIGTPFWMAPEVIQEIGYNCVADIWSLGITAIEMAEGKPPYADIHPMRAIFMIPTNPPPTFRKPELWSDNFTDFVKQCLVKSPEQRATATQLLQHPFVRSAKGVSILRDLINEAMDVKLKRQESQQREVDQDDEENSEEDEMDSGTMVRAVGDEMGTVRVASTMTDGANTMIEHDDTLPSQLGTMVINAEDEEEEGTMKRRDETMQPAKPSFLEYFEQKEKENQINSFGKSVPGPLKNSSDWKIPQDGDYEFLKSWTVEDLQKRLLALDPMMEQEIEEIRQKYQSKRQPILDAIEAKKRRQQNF
Dual specificity protein kinase CLK1 (Homo sapiens), sequence (P49759 whole entry, looked up): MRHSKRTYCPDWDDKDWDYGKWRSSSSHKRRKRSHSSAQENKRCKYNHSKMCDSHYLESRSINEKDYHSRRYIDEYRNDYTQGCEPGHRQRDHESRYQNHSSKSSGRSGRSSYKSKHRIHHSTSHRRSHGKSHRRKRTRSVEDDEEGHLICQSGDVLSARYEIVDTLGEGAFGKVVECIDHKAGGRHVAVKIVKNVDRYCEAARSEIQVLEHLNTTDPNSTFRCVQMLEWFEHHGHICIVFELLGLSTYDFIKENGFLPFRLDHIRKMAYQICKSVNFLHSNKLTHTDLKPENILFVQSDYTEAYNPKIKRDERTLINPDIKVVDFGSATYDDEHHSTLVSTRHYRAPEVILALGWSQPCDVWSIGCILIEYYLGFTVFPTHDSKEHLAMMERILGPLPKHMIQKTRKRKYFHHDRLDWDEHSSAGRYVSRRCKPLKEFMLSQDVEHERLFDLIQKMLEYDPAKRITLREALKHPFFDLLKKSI
Aurora kinase A (Homo sapiens), sequence (O14965 whole entry): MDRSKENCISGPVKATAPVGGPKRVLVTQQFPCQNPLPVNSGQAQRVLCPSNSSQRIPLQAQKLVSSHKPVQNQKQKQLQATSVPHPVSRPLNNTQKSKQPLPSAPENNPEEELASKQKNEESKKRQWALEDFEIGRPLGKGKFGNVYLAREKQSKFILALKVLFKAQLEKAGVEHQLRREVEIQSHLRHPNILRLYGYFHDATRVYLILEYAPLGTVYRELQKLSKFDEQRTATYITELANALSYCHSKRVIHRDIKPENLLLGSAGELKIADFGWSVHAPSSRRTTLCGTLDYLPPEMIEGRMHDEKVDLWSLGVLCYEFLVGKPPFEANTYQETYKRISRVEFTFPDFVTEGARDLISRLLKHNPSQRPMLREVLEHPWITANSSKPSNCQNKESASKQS
Mitotic checkpoint serine/threonine-protein kinase BUB1 (Homo sapiens), sequence (O43683 whole entry, looked up): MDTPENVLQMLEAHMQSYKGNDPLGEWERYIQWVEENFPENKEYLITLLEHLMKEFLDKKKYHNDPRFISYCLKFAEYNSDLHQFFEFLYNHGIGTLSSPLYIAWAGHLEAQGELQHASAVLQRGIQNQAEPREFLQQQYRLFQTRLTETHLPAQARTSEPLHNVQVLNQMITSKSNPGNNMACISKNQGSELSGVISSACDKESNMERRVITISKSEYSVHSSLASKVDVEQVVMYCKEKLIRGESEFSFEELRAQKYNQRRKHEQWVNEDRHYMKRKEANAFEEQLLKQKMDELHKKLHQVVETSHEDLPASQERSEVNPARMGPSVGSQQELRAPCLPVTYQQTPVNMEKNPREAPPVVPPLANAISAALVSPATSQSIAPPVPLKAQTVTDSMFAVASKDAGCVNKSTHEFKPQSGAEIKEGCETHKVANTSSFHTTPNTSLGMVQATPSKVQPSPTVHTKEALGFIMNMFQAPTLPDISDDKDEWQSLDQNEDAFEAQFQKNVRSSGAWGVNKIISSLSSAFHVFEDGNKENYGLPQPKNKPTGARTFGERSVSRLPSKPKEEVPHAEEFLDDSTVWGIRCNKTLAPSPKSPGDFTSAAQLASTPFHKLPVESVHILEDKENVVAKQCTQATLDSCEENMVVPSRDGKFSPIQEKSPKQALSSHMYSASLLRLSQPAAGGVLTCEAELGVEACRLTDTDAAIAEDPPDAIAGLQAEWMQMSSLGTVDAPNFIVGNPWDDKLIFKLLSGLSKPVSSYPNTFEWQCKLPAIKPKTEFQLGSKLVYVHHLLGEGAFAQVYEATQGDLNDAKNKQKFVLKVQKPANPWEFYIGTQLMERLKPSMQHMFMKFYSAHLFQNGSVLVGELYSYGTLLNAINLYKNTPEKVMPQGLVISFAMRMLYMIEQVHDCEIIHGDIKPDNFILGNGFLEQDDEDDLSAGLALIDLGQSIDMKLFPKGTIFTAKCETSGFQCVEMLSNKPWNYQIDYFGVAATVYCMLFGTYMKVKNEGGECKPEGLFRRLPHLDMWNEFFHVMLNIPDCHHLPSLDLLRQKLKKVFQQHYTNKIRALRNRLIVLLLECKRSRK
5-hydroxytryptamine receptor 1B (Homo sapiens), sequence (P28222 whole entry): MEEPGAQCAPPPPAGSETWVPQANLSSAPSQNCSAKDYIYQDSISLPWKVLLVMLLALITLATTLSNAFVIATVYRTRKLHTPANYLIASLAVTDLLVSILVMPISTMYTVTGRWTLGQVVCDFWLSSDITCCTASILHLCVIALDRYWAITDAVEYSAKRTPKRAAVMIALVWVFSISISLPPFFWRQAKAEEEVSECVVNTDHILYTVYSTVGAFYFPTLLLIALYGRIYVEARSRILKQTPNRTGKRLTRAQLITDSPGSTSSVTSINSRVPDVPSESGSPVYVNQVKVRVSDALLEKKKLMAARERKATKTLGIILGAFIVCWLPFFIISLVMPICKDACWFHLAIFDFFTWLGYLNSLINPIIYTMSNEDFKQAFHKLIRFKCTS
Serine/threonine-protein kinase LATS1 (Homo sapiens), sequence (O95835 whole entry): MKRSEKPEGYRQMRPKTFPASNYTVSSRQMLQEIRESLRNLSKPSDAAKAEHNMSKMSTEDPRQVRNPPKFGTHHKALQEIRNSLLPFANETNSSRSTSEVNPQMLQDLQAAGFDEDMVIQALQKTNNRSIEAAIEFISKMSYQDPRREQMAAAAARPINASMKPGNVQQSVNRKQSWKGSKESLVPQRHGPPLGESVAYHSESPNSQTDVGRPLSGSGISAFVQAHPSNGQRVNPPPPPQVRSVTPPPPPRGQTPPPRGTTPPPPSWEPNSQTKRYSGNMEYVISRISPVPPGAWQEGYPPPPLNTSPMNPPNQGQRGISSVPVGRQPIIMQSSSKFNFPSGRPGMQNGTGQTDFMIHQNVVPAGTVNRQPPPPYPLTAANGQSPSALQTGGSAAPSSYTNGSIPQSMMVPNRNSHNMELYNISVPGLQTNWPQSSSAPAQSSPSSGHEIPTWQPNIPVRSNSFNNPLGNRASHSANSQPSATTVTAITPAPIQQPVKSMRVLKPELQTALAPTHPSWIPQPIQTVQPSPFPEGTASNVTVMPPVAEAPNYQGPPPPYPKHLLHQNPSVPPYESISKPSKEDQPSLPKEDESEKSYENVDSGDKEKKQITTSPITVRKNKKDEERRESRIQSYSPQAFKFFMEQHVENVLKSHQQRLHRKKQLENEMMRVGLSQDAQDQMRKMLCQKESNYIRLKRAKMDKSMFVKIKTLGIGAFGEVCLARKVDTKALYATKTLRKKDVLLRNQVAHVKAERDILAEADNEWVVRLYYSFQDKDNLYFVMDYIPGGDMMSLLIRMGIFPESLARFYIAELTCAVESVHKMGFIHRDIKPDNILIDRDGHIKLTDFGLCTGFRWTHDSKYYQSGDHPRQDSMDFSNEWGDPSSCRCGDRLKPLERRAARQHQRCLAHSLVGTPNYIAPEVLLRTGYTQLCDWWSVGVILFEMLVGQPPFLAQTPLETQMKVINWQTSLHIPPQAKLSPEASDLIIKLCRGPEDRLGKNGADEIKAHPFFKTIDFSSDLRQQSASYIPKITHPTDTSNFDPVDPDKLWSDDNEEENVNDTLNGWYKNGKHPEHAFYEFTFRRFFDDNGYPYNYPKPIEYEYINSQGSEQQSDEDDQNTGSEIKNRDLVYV

Cn1cncc1[C@@](O)(COc1ccc(C#N)cc1-c1ccc(OC(F)(F)F)cc1)c1ccc(C#N)cc1 [A-108]
inactive: residual activity [1] 94% | residual activity [2] 100% | residual activity [3] 100% | residual activity [4] 76% | residual activity [5] 82% | residual activity [6] 98% | residual activity [7] 100% | residual activity [8] 97% | residual activity [9] 100% | residual activity [10] 96% | residual activity [11] 74% | residual activity [12] 60% | residual activity [13] 100% | residual activity [14] 100% | residual activity [15] 91% | residual activity [16] 95% | residual activity [17] 89% | residual activity [18] 100% | residual activity [19] 84% | residual activity [20] 100% | residual activity [21] 100% | residual activity [22] 99% | residual activity [23] 94% | residual activity [24] 100% | residual activity [25] 100% | residual activity [26] 100% | residual activity [27] 100% | residual activity [28] 95% | residual activity [29] 87% | residual activity [30] 96% | residual activity [31] 94% | residual activity [32] 100% | residual activity [33] 95% | residual activity [34] 94% | residual activity [35] 72% | residual activity [36] 98% | residual activity [37] 56% | residual activity [38] 70% | residual activity [39] 95% | residual activity [40] 84% | inhibition [41] 3.34% | inhibition [42] 6.65% | inhibition [43] 7.11% | inhibition [44] 2.79% | inhibition [45] -5.85%

Cn1cncc1[C@](O)(COc1ccc(C#N)cc1-c1ccc(OC(F)(F)F)cc1)c1ccc(C#N)cc1 [ABT-100]
inactive: residual activity [1] 87% | residual activity [2] 83% | residual activity [3] 84% | residual activity [4] 95% | residual activity [5] 92% | residual activity [6] 85% | residual activity [7] 71% | residual activity [8] 77% | residual activity [9] 70% | residual activity [10] 94% | residual activity [11] 79% | residual activity [12] 80% | residual activity [13] 71% | residual activity [14] 72% | residual activity [15] 90% | residual activity [16] 100% | residual activity [17] 100% | residual activity [18] 86% | residual activity [19] 100% | residual activity [20] 87% | residual activity [21] 100% | residual activity [22] 100% | residual activity [23] 76% | residual activity [24] 86% | residual activity [25] 100% | residual activity [26] 100% | residual activity [27] 100% | residual activity [28] 89% | residual activity [29] 91% | residual activity [30] 87% | residual activity [31] 81% | residual activity [32] 100% | residual activity [33] 94% | residual activity [34] 87% | residual activity [35] 89% | residual activity [36] 100% | residual activity [37] 53% | residual activity [38] 100% | residual activity [39] 70% | residual activity [40] 67% | inhibition [41] -4.28% | inhibition [42] -0.932% | inhibition [43] 1.11% | inhibition [44] 23.3% | inhibition [45] 32.9%

Reference: ChEMBL document CHEMBL4507257, “Data for DCP probe ABT-100” (2021)
